The term IC50 denotes the midpoint of a concentration-inhibition curve.

The target in experiment [1] is [Pyruvate dehydrogenase (acetyl-transferring)] kinase isozyme 1, mitochondrial (Homo sapiens, UniProt Q15118). The experiment can be described thus: Selectivity interaction (Kinase panel (Z-LYTE Assay)) EUB0001632a PDK1. Conditions: at 10 µM.
Experiment [2] has as its target T1, Protein kinase C zeta type (Homo sapiens) (UniProt Q05513).
T1 sequence (whole entry): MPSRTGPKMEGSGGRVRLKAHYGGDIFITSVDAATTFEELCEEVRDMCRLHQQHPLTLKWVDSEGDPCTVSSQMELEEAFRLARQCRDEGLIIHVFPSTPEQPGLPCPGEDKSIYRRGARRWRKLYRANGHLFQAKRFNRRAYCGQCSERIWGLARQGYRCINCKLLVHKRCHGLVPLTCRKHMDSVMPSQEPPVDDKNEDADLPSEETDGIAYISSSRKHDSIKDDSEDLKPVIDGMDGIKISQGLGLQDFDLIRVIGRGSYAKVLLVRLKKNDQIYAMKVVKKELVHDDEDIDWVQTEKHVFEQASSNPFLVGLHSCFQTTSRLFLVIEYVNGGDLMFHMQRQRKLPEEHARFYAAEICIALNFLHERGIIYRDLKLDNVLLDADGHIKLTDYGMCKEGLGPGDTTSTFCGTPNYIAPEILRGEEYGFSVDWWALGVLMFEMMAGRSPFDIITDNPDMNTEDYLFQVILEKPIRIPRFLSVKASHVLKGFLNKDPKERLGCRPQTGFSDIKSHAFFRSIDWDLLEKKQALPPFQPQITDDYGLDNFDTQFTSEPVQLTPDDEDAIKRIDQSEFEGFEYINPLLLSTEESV
The experiment can be described thus: Selectivity interaction (Kinase panel (Z-LYTE Assay)) EUB0001632a PRKCZ. Particulars: at 10 µM.

In experiment [3] the target is Histone-lysine N-methyltransferase ASH1L (Homo sapiens) (UniProt Q9NR48). The experiment can be described thus: Selectivity interaction (Methyltransferase screen (Scintillation proximity assays)) EUB0000255b ASH1L. On the technique in general: SPA uses beads or plates that emit light when radiolabelled molecules are held near them.
Experiment [4] concerns the target 5-hydroxytryptamine receptor 2B (Homo sapiens, UniProt P41595). Kind of experiment: Selectivity interaction (Eurofins safety panel) EUB0001564a HTR2B. Conditions: at 10 µM.
The target of experiment [5] is High affinity nerve growth factor receptor (Homo sapiens, UniProt P04629). The experiment can be described thus: Selectivity interaction (KinomeScan (DiscoverX)) EUB0000595a NTRK1. Particulars: at 10 µM.
Experiment [6] addresses NT-3 growth factor receptor (Homo sapiens, UniProt Q16288). The experiment can be described thus: Selectivity interaction (KinomeScan (DiscoverX)) EUB0001619a NTRK3. Particulars: at 1 µM.
Experiment [7] concerns Proto-oncogene tyrosine-protein kinase receptor Ret (Homo sapiens), P07949 [M918T]. Conditions: at 10 µM.
Experiment [8] has as its target Serine/threonine-protein kinase PAK 6 (Homo sapiens) (UniProt Q9NQU5). The experiment can be described thus: Selectivity interaction (KinomeScan (DiscoverX)) EUB0000666a PAK6. Particulars: at 10 µM.
Experiment [9] concerns the target Rho-associated protein kinase 1 (Homo sapiens) (UniProt Q13464). Kind of experiment: Selectivity interaction (KinomeScan (DiscoverX)) EUB0000607a ROCK1. Conditions: at 10 µM.
In experiment [10] the target is Protein kinase C alpha type (Homo sapiens, UniProt P17252). Kind of experiment: Selectivity interaction (Kinase screening (Upstate/Millipore)) EUB0000604a PRKCA.
For experiment [11], the target named is T2, Serine/threonine-protein kinase Nek3 (Homo sapiens) (UniProt P51956).
T2 sequence (whole entry): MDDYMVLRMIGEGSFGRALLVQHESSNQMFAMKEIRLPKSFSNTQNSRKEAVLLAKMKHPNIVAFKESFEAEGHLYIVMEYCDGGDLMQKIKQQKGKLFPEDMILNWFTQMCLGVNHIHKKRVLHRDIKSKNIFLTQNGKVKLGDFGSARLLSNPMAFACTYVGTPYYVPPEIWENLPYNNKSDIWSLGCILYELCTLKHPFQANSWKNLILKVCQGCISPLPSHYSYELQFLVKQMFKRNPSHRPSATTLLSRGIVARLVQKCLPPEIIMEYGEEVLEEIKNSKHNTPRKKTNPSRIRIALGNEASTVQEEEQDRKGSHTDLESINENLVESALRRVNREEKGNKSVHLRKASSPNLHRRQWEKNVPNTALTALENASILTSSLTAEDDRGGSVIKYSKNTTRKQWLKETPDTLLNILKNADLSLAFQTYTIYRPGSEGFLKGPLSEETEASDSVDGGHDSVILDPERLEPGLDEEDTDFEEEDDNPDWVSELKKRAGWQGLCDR
The experiment can be described thus: Selectivity interaction (ActivX KiNativ screen (kinase selectivity in THP-1 cell lysates)) EUB0000639a NEK3. In kind it is subcellular. Particulars: lysate.

Experiment [12] has as its target Tyrosine-protein kinase Fes/Fps (Homo sapiens) (UniProt P07332). Kind of experiment: Selectivity interaction (KinomeScan (DiscoverX)) EUB0000045b FES.
Experiment [13] addresses Dual specificity tyrosine-phosphorylation-regulated kinase 1B (Homo sapiens, UniProt Q9Y463). Kind of experiment: Selectivity interaction (Enzymatic assay (Eurofins)) EUB0001049a DYRK1B.
The target in experiment [14] is T3, Serine/threonine-protein kinase Chk1 (Homo sapiens) (UniProt O14757).
T3 sequence (whole entry): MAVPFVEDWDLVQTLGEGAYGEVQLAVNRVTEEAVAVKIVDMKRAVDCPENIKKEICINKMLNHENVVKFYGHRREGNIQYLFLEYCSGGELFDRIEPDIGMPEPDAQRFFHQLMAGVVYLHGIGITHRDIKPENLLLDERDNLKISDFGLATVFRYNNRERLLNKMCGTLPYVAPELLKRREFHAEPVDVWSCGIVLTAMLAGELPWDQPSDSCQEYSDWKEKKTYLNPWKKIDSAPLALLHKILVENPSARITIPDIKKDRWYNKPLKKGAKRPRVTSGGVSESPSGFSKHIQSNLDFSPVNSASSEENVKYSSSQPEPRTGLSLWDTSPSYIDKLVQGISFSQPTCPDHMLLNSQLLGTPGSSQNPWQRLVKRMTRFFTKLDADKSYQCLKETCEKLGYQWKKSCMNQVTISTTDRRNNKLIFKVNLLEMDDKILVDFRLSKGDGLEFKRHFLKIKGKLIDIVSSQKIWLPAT
Kind of experiment: Selectivity interaction (KinomeScan (DiscoverX)) EUB0001049a CHEK1. Particulars: at 1 µM.

Experiment [15] deals with Serine/threonine-protein kinase MRCK alpha (Homo sapiens) (UniProt Q5VT25). Kind of experiment: Selectivity interaction (KinomeScan (DiscoverX)) EUB0000655a CDC42BPA. Particulars: at 10 µM.
The target of experiment [16] is Histone-lysine N-methyltransferase ASH1L (Homo sapiens) (UniProt Q9NR48). The experiment can be described thus: Selectivity interaction (Human bromodomain panel (DSF assay)) EUB0000233b ASH1L.
The target of experiment [17] is Endothelin-1 receptor (Homo sapiens) (UniProt P25101). Kind of experiment: Selectivity interaction (Panel of non-epigenetic targets (kinases, GPCRs, ion channels, and transporters, Eurofins) ) EUB0000271b EDNRA. Particulars: at 1 µM.
The target of experiment [18] is Cyclin-dependent kinase 19 (Homo sapiens) (UniProt Q9BWU1). The experiment can be described thus: Selectivity interaction (KinomeScan (DiscoverX)) EUB0001079a CDK19. Conditions: at 1 µM.

A value given as a limit tells only on which side of the number the result lay.

Tyrosine-protein kinase Fes/Fps (Homo sapiens), sequence (P07332 whole entry): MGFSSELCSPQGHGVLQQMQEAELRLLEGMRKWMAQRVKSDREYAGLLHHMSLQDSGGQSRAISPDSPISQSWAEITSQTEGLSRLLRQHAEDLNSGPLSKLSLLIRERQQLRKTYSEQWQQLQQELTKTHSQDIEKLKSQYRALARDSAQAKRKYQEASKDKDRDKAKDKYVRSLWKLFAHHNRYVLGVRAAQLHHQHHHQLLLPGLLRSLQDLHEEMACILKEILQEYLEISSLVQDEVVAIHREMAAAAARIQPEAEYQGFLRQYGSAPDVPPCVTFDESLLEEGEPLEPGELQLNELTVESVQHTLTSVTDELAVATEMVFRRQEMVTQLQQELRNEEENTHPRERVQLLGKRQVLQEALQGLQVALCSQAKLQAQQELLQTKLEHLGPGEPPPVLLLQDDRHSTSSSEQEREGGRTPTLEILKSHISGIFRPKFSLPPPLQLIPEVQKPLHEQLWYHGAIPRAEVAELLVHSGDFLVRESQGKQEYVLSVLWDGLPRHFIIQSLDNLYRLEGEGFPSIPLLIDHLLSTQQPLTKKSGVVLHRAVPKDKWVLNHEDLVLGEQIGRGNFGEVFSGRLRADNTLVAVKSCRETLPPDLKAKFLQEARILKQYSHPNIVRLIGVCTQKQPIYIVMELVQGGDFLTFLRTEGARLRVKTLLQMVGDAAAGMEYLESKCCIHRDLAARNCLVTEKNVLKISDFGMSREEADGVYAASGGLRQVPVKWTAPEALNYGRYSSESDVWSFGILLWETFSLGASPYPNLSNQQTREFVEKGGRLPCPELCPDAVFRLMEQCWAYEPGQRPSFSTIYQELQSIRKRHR
Endothelin-1 receptor (Homo sapiens), sequence (P25101 whole entry): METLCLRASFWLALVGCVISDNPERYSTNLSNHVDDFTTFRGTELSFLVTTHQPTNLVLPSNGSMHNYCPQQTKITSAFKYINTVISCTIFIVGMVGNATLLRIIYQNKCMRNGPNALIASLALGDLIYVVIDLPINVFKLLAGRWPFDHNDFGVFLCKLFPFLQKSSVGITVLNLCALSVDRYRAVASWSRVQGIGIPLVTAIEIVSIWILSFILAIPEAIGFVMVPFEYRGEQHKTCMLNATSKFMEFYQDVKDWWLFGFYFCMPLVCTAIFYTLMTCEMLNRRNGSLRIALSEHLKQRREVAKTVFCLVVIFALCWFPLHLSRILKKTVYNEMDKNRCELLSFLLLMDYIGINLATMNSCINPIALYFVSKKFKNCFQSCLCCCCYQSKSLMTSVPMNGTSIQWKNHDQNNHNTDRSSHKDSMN
NT-3 growth factor receptor, sequence (Q16288 32-839 limits assumed): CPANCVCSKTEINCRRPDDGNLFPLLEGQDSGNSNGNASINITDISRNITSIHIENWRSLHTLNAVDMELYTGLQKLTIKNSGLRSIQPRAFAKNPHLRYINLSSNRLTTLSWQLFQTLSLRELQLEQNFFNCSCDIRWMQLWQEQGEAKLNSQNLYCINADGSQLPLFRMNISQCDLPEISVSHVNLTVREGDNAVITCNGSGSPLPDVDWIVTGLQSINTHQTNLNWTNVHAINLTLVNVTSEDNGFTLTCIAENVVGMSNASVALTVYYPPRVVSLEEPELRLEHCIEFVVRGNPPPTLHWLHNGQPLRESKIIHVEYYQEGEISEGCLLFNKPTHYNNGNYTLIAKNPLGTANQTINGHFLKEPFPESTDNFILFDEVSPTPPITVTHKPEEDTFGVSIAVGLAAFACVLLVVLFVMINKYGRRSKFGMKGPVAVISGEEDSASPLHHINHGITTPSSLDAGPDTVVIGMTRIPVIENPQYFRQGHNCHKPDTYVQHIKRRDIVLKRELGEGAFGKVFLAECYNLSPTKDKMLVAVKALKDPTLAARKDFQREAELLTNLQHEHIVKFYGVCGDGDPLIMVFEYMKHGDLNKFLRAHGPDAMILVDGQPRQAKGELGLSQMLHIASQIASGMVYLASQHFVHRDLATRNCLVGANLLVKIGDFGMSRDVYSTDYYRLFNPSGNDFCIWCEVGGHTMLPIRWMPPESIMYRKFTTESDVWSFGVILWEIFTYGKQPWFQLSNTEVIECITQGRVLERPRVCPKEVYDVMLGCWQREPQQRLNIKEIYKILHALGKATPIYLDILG
Rho-associated protein kinase 1 (Homo sapiens), sequence (Q13464 2-1354 limits assumed): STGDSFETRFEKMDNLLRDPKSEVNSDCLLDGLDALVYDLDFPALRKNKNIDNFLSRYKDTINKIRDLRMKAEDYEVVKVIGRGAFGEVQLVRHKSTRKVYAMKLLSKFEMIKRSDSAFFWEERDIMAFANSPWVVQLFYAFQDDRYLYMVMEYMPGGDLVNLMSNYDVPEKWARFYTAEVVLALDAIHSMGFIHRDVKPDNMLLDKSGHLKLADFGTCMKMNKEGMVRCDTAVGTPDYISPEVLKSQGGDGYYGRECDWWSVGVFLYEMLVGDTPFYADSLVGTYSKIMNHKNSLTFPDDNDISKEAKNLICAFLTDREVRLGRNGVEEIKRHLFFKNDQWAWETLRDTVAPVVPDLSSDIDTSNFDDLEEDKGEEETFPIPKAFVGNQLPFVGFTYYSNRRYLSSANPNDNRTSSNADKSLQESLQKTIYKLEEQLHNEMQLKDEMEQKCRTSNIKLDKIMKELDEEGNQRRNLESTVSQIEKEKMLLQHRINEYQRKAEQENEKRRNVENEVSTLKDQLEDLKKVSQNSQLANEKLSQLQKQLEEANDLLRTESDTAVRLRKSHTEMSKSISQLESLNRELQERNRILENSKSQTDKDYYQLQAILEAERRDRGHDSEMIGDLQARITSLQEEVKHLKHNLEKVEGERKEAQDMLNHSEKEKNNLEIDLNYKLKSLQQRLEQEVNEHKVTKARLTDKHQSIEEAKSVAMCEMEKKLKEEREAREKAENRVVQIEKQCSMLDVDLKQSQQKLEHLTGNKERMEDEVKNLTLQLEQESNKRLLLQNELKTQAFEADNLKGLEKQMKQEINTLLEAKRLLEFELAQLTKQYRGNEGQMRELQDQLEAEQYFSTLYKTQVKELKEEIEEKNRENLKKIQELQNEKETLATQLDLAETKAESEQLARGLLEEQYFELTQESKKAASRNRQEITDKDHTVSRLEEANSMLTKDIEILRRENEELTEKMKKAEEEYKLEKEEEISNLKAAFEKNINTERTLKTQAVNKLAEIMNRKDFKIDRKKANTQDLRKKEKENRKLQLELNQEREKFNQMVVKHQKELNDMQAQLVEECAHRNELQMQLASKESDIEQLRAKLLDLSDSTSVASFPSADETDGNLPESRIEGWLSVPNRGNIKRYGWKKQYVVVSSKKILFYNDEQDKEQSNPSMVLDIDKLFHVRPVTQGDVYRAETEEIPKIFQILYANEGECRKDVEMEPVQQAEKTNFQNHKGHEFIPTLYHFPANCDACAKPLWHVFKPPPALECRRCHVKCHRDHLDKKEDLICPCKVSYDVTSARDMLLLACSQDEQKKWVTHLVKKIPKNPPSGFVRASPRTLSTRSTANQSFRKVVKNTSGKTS
Cyclin-dependent kinase 19 (Homo sapiens), sequence (Q9BWU1 whole entry): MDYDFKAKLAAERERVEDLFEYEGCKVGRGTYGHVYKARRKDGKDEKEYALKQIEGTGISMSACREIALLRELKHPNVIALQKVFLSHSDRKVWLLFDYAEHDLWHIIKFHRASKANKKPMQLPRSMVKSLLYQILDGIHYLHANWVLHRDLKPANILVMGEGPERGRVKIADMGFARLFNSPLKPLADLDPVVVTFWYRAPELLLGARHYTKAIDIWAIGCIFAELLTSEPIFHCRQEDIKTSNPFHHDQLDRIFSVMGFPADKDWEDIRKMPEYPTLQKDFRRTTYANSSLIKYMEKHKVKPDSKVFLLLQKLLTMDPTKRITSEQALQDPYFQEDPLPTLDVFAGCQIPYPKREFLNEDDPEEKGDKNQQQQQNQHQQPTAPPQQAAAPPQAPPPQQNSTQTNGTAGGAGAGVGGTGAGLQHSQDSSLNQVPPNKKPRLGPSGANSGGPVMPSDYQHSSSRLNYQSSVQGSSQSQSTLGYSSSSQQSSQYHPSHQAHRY
5-hydroxytryptamine receptor 2B, sequence (P41595 whole entry): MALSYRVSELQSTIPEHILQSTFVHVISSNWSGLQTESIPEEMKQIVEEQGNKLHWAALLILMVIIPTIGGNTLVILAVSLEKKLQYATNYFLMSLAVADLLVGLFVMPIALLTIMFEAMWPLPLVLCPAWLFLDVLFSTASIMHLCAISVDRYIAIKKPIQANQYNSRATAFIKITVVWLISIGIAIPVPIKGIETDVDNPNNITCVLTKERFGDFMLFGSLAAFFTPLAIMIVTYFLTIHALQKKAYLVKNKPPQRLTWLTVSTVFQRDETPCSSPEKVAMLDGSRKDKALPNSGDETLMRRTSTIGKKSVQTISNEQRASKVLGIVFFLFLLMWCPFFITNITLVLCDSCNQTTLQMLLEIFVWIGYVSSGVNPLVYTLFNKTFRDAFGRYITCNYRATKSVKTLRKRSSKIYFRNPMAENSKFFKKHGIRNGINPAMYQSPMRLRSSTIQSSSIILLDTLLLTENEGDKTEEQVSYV

Regarding `Cn1cc(-n2cnc3c(NCc4nc5cc(Cl)c(Cl)cc5[nH]4)nc(N4CCOCC4)nc32)cn1`, the % of control was 9.23% in experiment [1] and 6.71% in experiment [2].
Take `COCCN1CCC(c2cc(CN(C)C(=O)c3cccc(Oc4ccccc4)c3)ccn2)CC1`: the % activity was above 95% in experiment [3] (at 1 µM) and above 90% in experiment [3] (at 10 µM).
Regarding `CC[C@@H](Nc1c(C#N)c(-c2ccc(-c3cccc(C)c3F)cc2)nc2cnccc12)C(=O)O` [BAY-091], the % of inhibition in [4] was found to be 98%.
As to `COCC(=O)NC/C=C/c1ccc2ncnc(Nc3ccc(Oc4ccc(C)nc4)c(C)c3)c2c1` [CP-724714], the % of control in [5] was 89%.
`N#Cc1cccc(-c2c[nH]c3ncnc(N4CCOCC4)c23)c1`: the % of control in experiment [6] turned out to be 84%.
Consider `CCN(CC)CCCCNc1ncc2cc(-c3cc(OC)cc(OC)c3)c(NC(=O)NC(C)(C)C)nc2n1`, for which the % of control in [7] worked out at 100%.
Turning to `O=C(NOC[C@H](O)CO)c1ccc(F)c(F)c1Nc1ccc(I)cc1F`, the % of control in experiment [8] is 100%.
The compound `CNC(=O)Nc1ccc(-c2nc(N3CC4CCC(C3)O4)c3cnn(C4CCC5(CC4)OCCO5)c3n2)cc1` registered a % of control in experiment [9] of 100%.
Turning to `Cc1cnc(Nc2ccc(F)cc2Cl)nc1-c1c[nH]c(C(=O)N[C@H](CO)c2cccc(Cl)c2)c1`, the % of inhibition in experiment [10] was 12%.
With `CC[C@@H]1[C@H](F)C(=O)N[C@@H]1COc1nccc2cc(C(N)=O)c(OC)cc12` [ZIMLOVISERTIB], the % of inhibition was -5.8% in experiment [11] (at 0.01 µM); -2.4% in experiment [11] (at 0.04 µM); 6.9% in experiment [11] (at 0.2 µM); -1.1% in [11] (at 1 µM); -11.5% in experiment [11] (at 5 µM).
Turning to `C=CC(=O)Nc1cc(-n2c(=O)ccc3cnc4ccc(-c5ccc(NS(C)(=O)=O)cc5)cc4c32)ccc1C`, the % of control in [12] (at 1 µM) was 92%; in [12] (at 10 µM), 100%.
`COc1cc(Nc2nc(C)cc(-c3cnn4nc(OC)ccc34)n2)cc(C(F)(F)F)c1` yielded an IC50 in experiment [13] above 10 µM. Further, the % of control in experiment [14] was 97%.
In the case of `CN(C)CCOc1ccc(-c2nc(-c3ccncc3)c(-c3ccc4c(c3)CC/C4=N\O)[nH]2)cc1`, the % of control in experiment [15] was found to be 78%.
For the compound `CN(C)CCCOc1ccc(-c2cc(NCCCn3cccn3)nc(S(C)(=O)=O)n2)cc1`, the dTM in experiment [16] was below 2 K.
For `Cc1cc(C)cc([C@@H]2c3cc(C)ccc3NC(=O)CN2C(=O)c2ccc(Br)s2)c1`, the % of inhibition in experiment [17] was -24%.
With `Nc1cnc(N2CCc3cc(S(=O)(=O)Nc4c(F)cc(Cl)cc4F)cc(N4CCCC4=O)c32)nc1` [TP-020n], the % of control in [18] stood at 100%.

The record behind these values is ChEMBL document CHEMBL5465560, “Selectivity Literature for EUbOPEN Chemogenomic Library” (2024).
